According to US8846710B2, “Method of preferentially inducing the biosynthesis of interferon” (3M Innovative Properties Company, priority 2005, dated 2014):

Columns and labels:
interferon (α) (IFN-α) = test: Cytokine induction in human cells: IFN-α secreted by PBMC into culture media (ELISA); format: cell-based; set-up: key to Maximal Response (pg/mL) IFN: If any negative values result from background subtraction, the reading is reported as “*”, and is noted as not reliably detectable; conditions: for Maximal Response IFN / Minimum Effective Concentration IFN / minimal effective concentration: human PBMC; for Maximal Response IFN / Minimum Effective Concentration IFN: median where tested in more than one experiment; for minimal effective concentration: lowest tested concentration inducing IFN-α over usually 20 pg/mL, median where more than one experiment, read-out: Minimum Effective Concentration (μM) IFN; for Maximal Response (pg/mL) IFN: maximal response in dose response curve, median
Outline: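 IFN-α secreted by density-gradient-isolated PBMC (final 2×10^6 cells/mL) was quantified by ELISA after 18–24 h compound exposure at 37 °C, typically 30-0.014 μM in 3-fold steps with ≤1% DMSO. Readings corrected for background and reference-compound variability; lowest concentration above usually 20 pg/mL reported, plus maximal response (pg/mL).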

[1] = tested on: tumor necrosis factor (α) (TNF-α); test: Cytokine induction in human cells: TNF-α secreted by PBMC into culture media (ORIGEN M-Series immunoassay); format: cell-based; set-up: key to Maximal Response (pg/mL) TNF / Maximal Response TNF: If any negative values result from background subtraction, the reading is reported as “*”, and is noted as not reliably detectable; conditions: for Minimum Effective Concentration TNF / Maximal Response TNF / minimal effective concentration: human PBMC; for Minimum Effective Concentration TNF: median where tested in more than one experiment; for Maximal Response TNF / Maximal Response (pg/mL) TNF: median; for minimal effective concentration: lowest tested concentration inducing TNF-α over usually 40 pg/mL, median where more than one experiment, read-out: Minimum Effective Concentration (μM) TNF; for Maximal Response (pg/mL) TNF: maximal response in dose response curve
Outline: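 Secreted TNF-α (pg/mL) was quantified by ORIGEN M-Series immunoassay after 18 to 24 hours culture at 37° C of human PBMC (2×10^6 cells/mL final) with test compound (usually 30-0.014 μM, 3-fold series, DMSO ≤1%). Values were corrected for DMSO or experimental background and a reference-compound ratio, giving a minimum effective concentration.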

[2] = Table 11, * = TNF below experimental background of 40 pg/mL
[3] = Table 10, * = below experimental background level
[4] = Table 7, background-subtracted, reference-adjusted

SMILES | Maximal Response IFN (interferon (α) (IFN-α); Table 11) | Minimum Effective Concentration IFN (interferon (α) (IFN-α); Table 11) | Minimum Effective Concentration TNF ([1]; Table 11) | Maximal Response TNF [1, 2] | also measured
Cc1nc2c(N)nc3ccccc3c2n1CCCNC(=O)N1CCOCC1 [Analog 87] | 4843 pg/mL | 0.37 µM | 30 µM | 463 pg/mL | –
CS(=O)(=O)NCCCCn1c(CO)nc2c(N)nc3ccccc3c21 [Example 368, N-[4-(4-amino-2-hydroxymethyl-1H-imidazo[4,5-c]quinolin-1-yl)butyl]methanesulfonamide] | 7220 pg/mL | – | – | * | –
CCOCc1nc2c(N)nc3cc(-c4cccnc4)ccc3c2n1CC(C)C [Analog 26] | – | – | – | – | minimal effective concentration (interferon (α) (IFN-α); Table 10): 0.014 µM; Maximal Response (pg/mL) IFN (interferon (α) (IFN-α); [3]): 591 pg/mL; minimal effective concentration ([1]; Table 10): 0.12 µM; Maximal Response (pg/mL) TNF [1, 3]: 647 pg/mL
Cc1nc2c(N)nc3ccccc3c2n1CCCNC(=O)c1ccccc1 [Analog 101] | 571 pg/mL | 1.11 µM | 3.33 µM | 156 pg/mL | –
COCCc1nc2c(N)nc3ccccc3c2n1CCCNC(=O)N1CCOCC1 [Analog 89] | 5915 pg/mL | 0.014 µM | 0.014 µM | 6169 pg/mL | –
CCOCc1nc2c(N)nc3cc(-c4cccc(C)c4)ccc3c2n1CC(C)(C)O [Analog 41] | – | – | – | – | minimal effective concentration (interferon (α) (IFN-α); Table 10): 0.014 µM; Maximal Response (pg/mL) IFN (interferon (α) (IFN-α); [3]): 541 pg/mL; minimal effective concentration ([1]; Table 10): 0.12 µM; Maximal Response (pg/mL) TNF [1, 3]: 10184 pg/mL
Cc1cccc(-c2ccc3c(c2)nc(N)c2nc(CO)n(CC(C)(C)O)c23)c1 [Example 164] | – | – | – | – | minimal effective concentration (interferon (α) (IFN-α); Table 10): 30 µM; Maximal Response (pg/mL) IFN (interferon (α) (IFN-α); [3]): 87 pg/mL; minimal effective concentration ([1]; Table 10): >30 µM; Maximal Response (pg/mL) TNF [1, 3]: *
COCCc1nc2c(N)nc3ccccc3c2n1CCCNC(=O)NC(C)C [Analog 83] | 1289 pg/mL | 0.12 µM | 1.11 µM | 1259 pg/mL | –
CC(C)Cn1c(CCO)nc2c(N)nc3cc(-c4cccnc4)ccc3c21 [Example 158] | – | – | – | – | minimal effective concentration (interferon (α) (IFN-α); Table 10): 0.37 µM; Maximal Response (pg/mL) TNF [1, 3]: 42 pg/mL
COCc1nc2c(N)nc3ccccc3c2n1CC(C)(C)CNC(=O)c1ccccc1 [Analog 94] | 2518 pg/mL | 1.11 µM | 3.33 µM | 9721 pg/mL | –
COCCc1nc2c(N)nc3ccccc3c2n1CCCCNC(=O)c1cnc2ccccc2n1 [Analog 116] | 1129 pg/mL | 0.014 µM | 0.04 µM | 7261 pg/mL | –
COCc1nc2c(N)nc3ccccc3c2n1CC(C)(C)NS(C)(=O)=O [Analog 47] | 1638 pg/mL | 0.37 µM | 3.33 µM | 7151 pg/mL | –
CCOCc1nc2c(N)nc3ccccc3c2n1CC(C)(C)CS(C)(=O)=O [Analog 124] | 1924 pg/mL | 0.12 µM | 0.37 µM | 9513 pg/mL | –
CCNC(=O)NCCn1c(CC)nc2c(N)nc3ccccc3c21 [Analog 103] | 1031 pg/mL | 3.33 µM | 10 µM | 3250 pg/mL | –
CCNC(=O)NCCn1c(CCO)nc2c(N)nc3ccccc3c21 [Example 137] | 801 pg/mL | 30 µM | 30 µM | 73 pg/mL | –
CCOCc1nc2c(N)nc3ccccc3c2n1CCCN [Analog 85] | 1325 pg/mL | 0.12 µM | 30 µM | 411 pg/mL | –
Cc1nc2c(N)nc3ccccc3c2n1CCCCCS(C)(=O)=O [Analog 73] | 1294 pg/mL | 0.37 µM | 3.33 µM | 771 pg/mL | –
COCCc1nc2c(N)nc3ccccc3c2n1CCCN [Analog 86] | 3433 pg/mL | 0.04 µM | 1.11 µM | 1674 pg/mL | –

SMILES | Maximal Response IFN (interferon (α) (IFN-α); Table 11) | Minimum Effective Concentration IFN (interferon (α) (IFN-α); Table 11) | Minimum Effective Concentration TNF ([1]; Table 11) | Maximal Response TNF [1, 2] | also measured
CC(C)(F)Cn1c(CCO)nc2c(N)nc3cccnc3c21 [Example 552, 2-[4-Amino-1-(2-fluoro-2-methylpropyl)-1H-imidazo[4,5-c][1,5]naphthyridin-2-yl]ethanol] | – | – | – | – | Maximal Response IFN (interferon (α) (IFN-α); Table 12): 1646 pg/mL; Maximal Response TNF ([1]; Table 12, * = below the experimental background of 40 pg/mL): 84 pg/mL
CCOCc1nc2c(N)nc3cc(-c4ccccc4)ccc3c2n1CC(C)(C)O [Analog 24] | – | – | – | – | minimal effective concentration (interferon (α) (IFN-α); Table 10): 0.014 µM; Maximal Response (pg/mL) IFN (interferon (α) (IFN-α); [3]): 440 pg/mL; minimal effective concentration ([1]; Table 10): 0.12 µM; Maximal Response (pg/mL) TNF [1, 3]: 2238 pg/mL
CCCc1nc2c(N)nc3ccccc3c2n1CCCNS(C)(=O)=O [Analog 60] | 2148 pg/mL | 1.11 µM | 10 µM | 109 pg/mL | –
CCOCc1nc2c(N)nc3cc(-c4cccnc4)ccc3c2n1CC1CCN(C(=O)C(C)C)CC1 [Analog 18] | – | – | – | – | minimal effective concentration (interferon (α) (IFN-α); Table 10): 0.12 µM; Maximal Response (pg/mL) IFN (interferon (α) (IFN-α); [3]): 2979 pg/mL; minimal effective concentration ([1]; Table 10): 0.37 µM; Maximal Response (pg/mL) TNF [1, 3]: 1449 pg/mL
Nc1nc2ccccc2c2c1nc(CCO)n2CCCCNC(=O)c1cnc2ccccc2c1 [Example 116] | 8361 pg/mL | 0.37 µM | 30 µM | 1112 pg/mL | –
COCCc1nc2c(N)nc3ccccc3c2n1CCCNS(=O)(=O)c1ccc(C)cc1 [Analog 109] | 638 pg/mL | 0.04 µM | 0.37 µM | 6169 pg/mL | –
CCc1nc2c(N)nc3ccccc3c2n1CCOCCN(C)S(C)(=O)=O [Analog 78] | 1803 pg/mL | 0.12 µM | 1.11 µM | 2525 pg/mL | –
COCCc1nc2c(N)nc3ccccc3c2n1CCCNC(=O)c1cc2ccccc2cn1 [Analog 110] | 647 pg/mL | 0.12 µM | 1.11 µM | 6169 pg/mL | –
CC(C)(CNC(=O)c1ccccc1)Cn1c(CCO)nc2c(N)nc3ccccc3c21 [Example 124] | 3980 pg/mL | 0.12 µM | 3.33 µM | 1446 pg/mL | –
Cc1nc2c(N)nc3ccccc3c2n1CCOCCN(C)S(C)(=O)=O [Analog 77] | 1001 pg/mL | 0.12 µM | 1.11 µM | 3571 pg/mL | –
Nc1nc2cc(-c3ccccc3)ccc2c2c1nc(CCO)n2CCCN1CCCC1=O [Example 156] | – | – | – | – | minimal effective concentration (interferon (α) (IFN-α); Table 10): >30 µM; Maximal Response (pg/mL) IFN (interferon (α) (IFN-α); [3]): *; minimal effective concentration ([1]; Table 10): >30 µM; Maximal Response (pg/mL) TNF [1, 3]: *
Cc1nc2c(N)nc3ccccc3c2n1CCNS(C)(=O)=O [Analog 68] | 1610 pg/mL | 0.12 µM | 10 µM | 820 pg/mL | –
CCCc1nc2c(N)nc3cc(-c4cccnc4)ccc3c2n1CCCCNC(=O)C(C)C [Analog 38] | – | – | – | – | minimal effective concentration (interferon (α) (IFN-α); Table 10): 0.12 µM; Maximal Response (pg/mL) IFN (interferon (α) (IFN-α); [3]): 1610 pg/mL; minimal effective concentration ([1]; Table 10): 0.37 µM; Maximal Response (pg/mL) TNF [1, 3]: 960 pg/mL
CCCC(=O)NCCCCn1c(CCC)nc2c(N)nc3cc(-c4cccnc4)ccc3c21 [Analog 32] | – | – | – | – | minimal effective concentration (interferon (α) (IFN-α); Table 10): 0.12 µM; Maximal Response (pg/mL) IFN (interferon (α) (IFN-α); [3]): 862 pg/mL; minimal effective concentration ([1]; Table 10): 0.37 µM; Maximal Response (pg/mL) TNF [1, 3]: 1647 pg/mL
COCCc1nc2c(N)nc3ccccc3c2n1CCOCCN(C)S(C)(=O)=O [Analog 80] | 1630 pg/mL | 0.014 µM | 0.37 µM | 2191 pg/mL | –
CCOCc1nc2c(N)nc3cc(-c4cccc(C(=O)N5CCOCC5)c4)ccc3c2n1CC1CCCCC1 [Analog 46] | – | – | – | – | minimal effective concentration (interferon (α) (IFN-α); Table 10): 0.014 µM; Maximal Response (pg/mL) IFN (interferon (α) (IFN-α); [3]): 815 pg/mL; minimal effective concentration ([1]; Table 10): 0.37 µM; Maximal Response (pg/mL) TNF [1, 3]: 1054 pg/mL
CCCc1nc2c(N)nc3ccccc3c2n1CC(C)(C)NS(C)(=O)=O [Analog 3, N-[2-(4-Amino-2-propyl-1H-imidazo[4,5-c]quinolin-1-yl)-1,1-dimethylethyl]methanesulfonamide] | – | – | – | 9780 pg/mL | Maximal Response (pg/mL) IFN (interferon (α) (IFN-α); [4]): 832 pg/mL; Maximal Response (pg/mL) TNF [1, 4]: 7245 pg/mL
